This passage reports inhibition results from article PMC12751012, “Nanoscale Direct-to-Biology Optimization and Structural Insights into Selective S. aureus TrmD Inhibitors” (Journal of Medicinal Chemistry, 2025).

For this assay, the target named is T1, S. aureus TrmD (Staphylococcus aureus, UniProt Q2FZ43).
T1 construct: made in house; host or cells: E. coli BL21
T1 sequence (Q2FZ43 1-245): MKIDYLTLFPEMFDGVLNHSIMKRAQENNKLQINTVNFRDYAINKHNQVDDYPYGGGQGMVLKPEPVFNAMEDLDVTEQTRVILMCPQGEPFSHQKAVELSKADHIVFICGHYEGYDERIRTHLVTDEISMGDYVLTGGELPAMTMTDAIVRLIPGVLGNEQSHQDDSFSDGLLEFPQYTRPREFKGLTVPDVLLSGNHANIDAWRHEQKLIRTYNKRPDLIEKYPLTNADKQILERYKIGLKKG
Briefly: nanoSAR direct-to-biology FP displacement screening of crude triazoles. The note with it: crude triazole at 1 μM, assuming full conversion; 500 nM TrmD, 10 nM tracer 4; read-out: % displaced tracer. Type of assay: binding. From the text: Next, we conducted an S. aureus TrmD-targeting nanoSAR study. For this, alkyne 7 was reacted on a 96 nmol scale with an in-house diversity-oriented azide library (N = 320, mean pairwise Tanimoto similarity = 0.11) designed to cover a large chemical fragment space, generating a panel of 320 crude triazoles ready for FP assay investigation. The composition of the azide library is designed to be chemically diverse in several categories, including physicochemical properties such as polar surface area, lipophilicity, and the number of hydrogen bond donors and acceptors, as well as structural features like the number of aromatic rings (Figure S23). A complete list of chemical structures included in the azide library can be found in Table S4. In situ reaction conditions for CuAAC were adapted from Gehrtz et al., utilizing CuSO4, which is reduced in situ to Cu(I) by sodium ascorbate and stabilized by TBTA. Degassed water and DMSO (1:1) were used as solvents to prevent the oxidation from Cu(I) to Cu(II). For the synthesis of the triazole library, a master mix was prepared, containing all reaction components except the azides. All reactions were started by the addition of the respective azide in 24 μL at a final product concentration of 4 mM (96 nmol). Reaction mixtures were incubated for 16 h at room temperature and under an argon atmosphere in sealed 96-well plates.
For FP assay screening, we used 500 nM of S. aureus TrmD and 10 nM of tracer 4 in a total volume of 40 μL in 96-well plates. We performed control measurements and defined 10 nM of tracer 4 in buffer as 100% displacement and the DMSO control as 0% tracer displacement. […] The results of the FP screening were visualized in a waterfall plot and plate-based heatmaps (Figure , Figure S3).
Fluorescence polarization (FP) assays were performed as follows. The assays for H. influenzae TrmD have been described previously. All assays were conducted in technical triplicate using black 96-well half area plates. For the FP assays, a tracer (20 nM Cy5TPD for E. coli and H. influenzae TrmD, 10 nM tracer 4 for S. aureus TrmD) was mixed with the respective enzyme (2 μM E. coli TrmD, 2 μM H. influenzae TrmD, 500 nM S. aureus TrmD) in buffer (E. coli and H. influenzae TrmD: 50 mM HEPES, 500 mM NaCl, 5% Glycerol, pH 7.5, S. aureus TrmD: 40 mM Tris HCl, 100 mM NaCl, 10 mM MgCl2, 5% Glycerol, pH 7.5). The compounds were added in varying concentrations for K D-value determination. […] The Z-factor for tracer 4 was determined by measuring 48 replicates of the free tracer (positive controls, PC) and 48 replicates of a mixture of enzyme and tracer (negative controls, NC). The Z-factor is defined in terms of the means (μ) and standard deviations (σ) of the positive and negative controls and calculated as Z = 1–(3*(σnc + σpc)/(μnc–μpc)). […] Polarization values (mP) were determined from polarization-specific parallel and orthogonal fluorescence intensities. K D-values were calculated in GraphPad Prism 8.0.1 using the four-parameter Hill equation: y(% tracer bound) = bottom + ([ligand]-slope) × (top–bottom)/([ligand]-slope + K Dslope).
A commercial azide diversity library (Enamine) containing 320 azides at a concentration of 100 mM in DMSO in a 96-well tube rack was employed for this nanoSAR study. For the reaction of the azides with alkyne 7 via CuAAC, a master mix was prepared. […] The solvents were degassed with argon to avoid oxidation of the copper(I) during the reaction. To each well of a 96-well PCR plate (Applied Biosystems MicroAmp) were added 23 μL of the master mix and 1 μL of the 100 mM azide stock. The final concentrations in the Mastermix were: 8.7 mM sodium ascorbate (8.3 mM in reaction well), 1.1 mM TBTA (1.0 mM in reaction well), 4.3 mM 7 (4.1 mM in reaction well), 1.3 mM CuSO4×5 H2O (1.2 mM in reaction well).

Turning to `O=c1[nH]cnc2[nH]cc(-c3cn(Cc4ncon4)nn3)c12` [Compound 01C09, O=C1NC=NC=2NC=C(C=3N=NN(C3)CC4=NOC=N4)C12], the inhibition at 1 µM is 31%. Then `NC[C@H]1CCC[C@@H](Cn2cc(-c3c[nH]c4nc[nH]c(=O)c34)nn2)C1` [Compound 02A02, O=C1NC=NC=2NC=C(C=3N=NN(C3)C[C@H]4C[C@@H](C[NH3+])CCC4)C12], with 31%. Then `CC(C)(C)OC(=O)N1CC(c2ocnc2Cn2cc(-c3c[nH]c4nc[nH]c(=O)c34)nn2)C1` [Compound 02B10, O=C(OC(C)(C)C)N1C[C@H](C=2OC=NC2CN3N=NC(C=4C=5C(=O)NC=NC5NC4)=C3)C1], with 37%; and `O=c1[nH]cnc2[nH]cc(-c3cn(-c4cccc5ncccc45)nn3)c12` [Compound 03B01, O=C1NC=NC=2NC=C(C=3N=NN(c4c5c(nccc5)ccc4)C3)C12], with 20%. Turning to `O=c1[nH]cnc2[nH]cc(-c3cn(Cc4cccc(Cl)c4)nn3)c12` [Compound 03D11, Clc1cc(ccc1)CN2N=NC(C=3C=4C(=O)NC=NC4NC3)=C2], the inhibition at 1 µM was determined as 75%. For `CC1(Cn2cc(-c3c[nH]c4nc[nH]c(=O)c34)nn2)COC1` [Compound 01H02, O=C1NC=NC=2NC=C(C=3N=NN(C3)CC4(COC4)C)C12] the value was 58%; for `O=c1[nH]cnc2[nH]cc(-c3cn(CC4CCC=CCC4)nn3)c12` [Compound 02G01, O=C1NC=NC=2NC=C(C=3N=NN(C3)CC4CCC=CCC4)C12], 71%. Turning to `O=c1[nH]cnc2[nH]cc(-c3cn(Cc4ccc(F)cc4F)nn3)c12` [Compound 02H03, Fc1c(ccc(F)c1)CN2N=NC(C=3C=4C(=O)NC=NC4NC3)=C2], the inhibition at 1 µM worked out at 49%.

Take `O=c1[nH]cnc2[nH]cc(-c3cn(CCn4ccccc4=O)nn3)c12` [Compound 01C11, O=C1N(C=CC=C1)CCN2N=NC(C=3C=4C(=O)NC=NC4NC3)=C2]: the inhibition at 1 µM was found to be 52%. Turning to `N#CCCCn1cc(-c2c[nH]c3nc[nH]c(=O)c23)nn1` [Compound 02E02, O=C1NC=NC=2NC=C(C=3N=NN(C3)CCCC#N)C12], the inhibition at 1 µM came to 35%. For `O=c1[nH]cnc2[nH]cc(-c3cn(CC(F)(F)F)nn3)c12` [Compound 03A11, FC(F)(F)CN1N=NC(C=2C=3C(=O)NC=NC3NC2)=C1] the value was 14%; for `O=c1[nH]cnc2[nH]cc(-c3cn(-c4ccc(O)cc4)nn3)c12` [Compound 01G09, O=C1NC=NC=2NC=C(C=3N=NN(c4ccc(O)cc4)C3)C12], 23%; for `O=c1[nH]cnc2[nH]cc(-c3cn(CC4CNC4)nn3)c12` [Compound 01B06, O=C1NC=NC=2NC=C(C=3N=NN(C3)CC4C[NH2+]C4)C12], 62%.

As for `CC(C)(C)OC(=O)N1CC[C@H](C2CC2)[C@H]1Cn1cc(-c2c[nH]c3nc[nH]c(=O)c23)nn1` [Compound 04C03, O=C(OC(C)(C)C)N1[C@@H]([C@@H](C2CC2)CC1)CN3N=NC(C=4C=5C(=O)NC=NC5NC4)=C3], the inhibition at 1 µM stood at 52%. For `CC(C)(CN)Cn1cc(-c2c[nH]c3nc[nH]c(=O)c23)nn1` [Compound 02E01, O=C1NC=NC=2NC=C(C=3N=NN(C3)CC(C[NH3+])(C)C)C12] the value was 54%. For `O=c1[nH]cnc2[nH]cc(-c3cn(CCc4ccccn4)nn3)c12` [Compound 04G02, O=C1NC=NC=2NC=C(C=3N=NN(C3)CCc4ncccc4)C12], the inhibition at 1 µM came to 89%. `O=c1[nH]cnc2[nH]cc(-c3cn(-c4ccc(OC(F)(F)F)c(Cl)c4)nn3)c12` [Compound 01B11, Clc1c(OC(F)(F)F)ccc(N2N=NC(C=3C=4C(=O)NC=NC4NC3)=C2)c1]: the inhibition at 1 µM came to 16%. Then `O=c1[nH]cnc2[nH]cc(-c3cn([C@H]4CC[C@@H]4O)nn3)c12` [Compound 01D04, O=C1NC=NC=2NC=C(C=3N=NN(C3)[C@@H]4[C@@H](O)CC4)C12], with 21%; and `N#Cc1cc(Cl)ccc1-n1cc(-c2c[nH]c3nc[nH]c(=O)c23)nn1` [Compound 02H02, Clc1cc(C#N)c(N2N=NC(C=3C=4C(=O)NC=NC4NC3)=C2)cc1], with 0%. Then `O=C(NCCn1cc(-c2c[nH]c3nc[nH]c(=O)c23)nn1)C(F)(F)F` [Compound 02F11, FC(F)(F)C(=O)NCCN1N=NC(C=2C=3C(=O)NC=NC3NC2)=C1], with 41%; and `N[C@H]1C[C@@H](n2cc(-c3c[nH]c4nc[nH]c(=O)c34)nn2)C1` [Compound 02G12, O=C1NC=NC=2NC=C(C=3N=NN(C3)[C@@H]4C[C@H]([NH3+])C4)C12], with 31%. Then `NCCCCn1cc(-c2c[nH]c3nc[nH]c(=O)c23)nn1` [Compound 02E04, O=C1NC=NC=2NC=C(C=3N=NN(C3)CCCC[NH3+])C12], with 16%; and `COC(=O)c1cccc2nc(Cn3cc(-c4c[nH]c5nc[nH]c(=O)c45)nn3)cn12` [Compound 03F06, O=C(OC)C=1N2C(=NC(=C2)CN3N=NC(C=4C=5C(=O)NC=NC5NC4)=C3)C=CC1], with 26%. Take `CN1CC[C@@H](n2cc(-c3c[nH]c4nc[nH]c(=O)c34)nn2)C1=O` [Compound 03E02, O=C1NC=NC=2NC=C(C=3N=NN(C3)[C@H]4C(=O)N(CC4)C)C12]: the inhibition at 1 µM came to 27%.

In the case of `O=c1[nH]cnc2[nH]cc(-c3cn(Cc4cc(-c5ccco5)on4)nn3)c12` [Compound 03B03, O=C1NC=NC=2NC=C(C=3N=NN(C3)CC4=NOC(C=5OC=CC5)=C4)C12], the inhibition at 1 µM was 49%. For `Cc1ccccc1-n1cc(-c2c[nH]c3nc[nH]c(=O)c23)nn1` [Compound 01D08, O=C1NC=NC=2NC=C(C=3N=NN(c4c(cccc4)C)C3)C12] the value was 9%. Consider `N#Cc1ccc(Cn2cc(-c3c[nH]c4nc[nH]c(=O)c34)nn2)c(F)c1` [Compound 01A01, Fc1c(ccc(C#N)c1)CN2N=NC(C=3C=4C(=O)NC=NC4NC3)=C2], for which the inhibition at 1 µM worked out at 12%. Consider `O=c1[nH]cnc2[nH]cc(-c3cn([C@H]4CCc5cccnc54)nn3)c12` [Compound 03G04, O=C1NC=NC=2NC=C(C=3N=NN(C3)[C@@H]4c5ncccc5CC4)C12], for which the inhibition at 1 µM was determined as 49%. For `O=c1[nH]cnc2[nH]cc(-c3cn(Cc4nnc(C5CC5)o4)nn3)c12` [Compound 04E03, O=C1NC=NC=2NC=C(C=3N=NN(C3)CC=4OC(=NN4)C5CC5)C12] the value was 44%; for `O=c1[nH]cnc2[nH]cc(-c3cn([C@H]4COCC[C@@H]4O)nn3)c12` [Compound 02C08, O=C1NC=NC=2NC=C(C=3N=NN(C3)[C@@H]4[C@@H](O)CCOC4)C12], 49%.

As for `O=c1[nH]cnc2[nH]cc(-c3cn(Cc4ccno4)nn3)c12` [Compound 04F02, O=C1NC=NC=2NC=C(C=3N=NN(C3)CC=4ON=CC4)C12], the inhibition at 1 µM came out at 92%. Consider `O=c1[nH]cnc2[nH]cc(-c3cn(C[C@@H]4CCOC4)nn3)c12` [Compound 02D06, O=C1NC=NC=2NC=C(C=3N=NN(C3)C[C@H]4COCC4)C12], for which the inhibition at 1 µM is 26%. Then `O=c1[nH]cnc2[nH]cc(-c3cn(C4COC4)nn3)c12` [Compound 03G09, O=C1NC=NC=2NC=C(C=3N=NN(C3)C4COC4)C12], with 19%.
